Laboratory results published in article PMC6351562, “Structure, function, and inhibition of drug reactivating human gut microbial β-glucuronidases” (Scientific Reports, 2019).
“And” between values parts separate entries of the source, which are not always exact repeats. Equal values may be shown once.

Columns and labels:
Assay in all cases: In vitro DCF-G processing assay (UPLC)
Format in all cases: biochemical
[1] = target: T1, Streptococcus agalactiae GUS (SaGUS) (Streptococcus agalactiae serotype V, UniProt Q8E0N2); settings: DCF-G as substrate, 400 µM; pH 6.5; 37 °C
T1 construct: 6x His; made in house
T1 sequence (Q8E0N2 whole entry): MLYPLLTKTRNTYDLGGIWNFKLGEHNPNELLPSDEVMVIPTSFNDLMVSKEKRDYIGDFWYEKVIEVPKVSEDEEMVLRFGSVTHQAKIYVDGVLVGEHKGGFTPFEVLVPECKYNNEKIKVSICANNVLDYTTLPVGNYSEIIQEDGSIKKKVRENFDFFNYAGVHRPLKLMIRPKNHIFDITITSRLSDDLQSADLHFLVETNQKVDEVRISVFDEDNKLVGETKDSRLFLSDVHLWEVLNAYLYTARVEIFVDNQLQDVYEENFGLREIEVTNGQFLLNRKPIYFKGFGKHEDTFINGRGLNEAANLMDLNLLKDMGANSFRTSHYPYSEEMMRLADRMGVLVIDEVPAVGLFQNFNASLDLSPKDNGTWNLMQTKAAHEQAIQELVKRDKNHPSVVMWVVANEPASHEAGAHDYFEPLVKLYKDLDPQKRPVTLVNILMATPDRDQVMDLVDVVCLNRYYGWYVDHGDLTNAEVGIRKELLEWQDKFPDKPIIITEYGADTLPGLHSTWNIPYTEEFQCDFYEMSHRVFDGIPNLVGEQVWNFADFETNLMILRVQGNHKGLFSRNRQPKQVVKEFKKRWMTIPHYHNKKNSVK
Text: (§1) While pNPG serves as a useful tool to assess the glucuronide processing capabilities of GUS enzymes, it is not a substrate present in the GI tract. Given our hypothesis that L1 GUS enzymes efficiently process drug glucuronides, we determined using ultra performance liquid chromatography (UPLC) the cleavage rates of the novel L1 GUS enzymes FpGUS, LrGUS, RgGUS, as well as the ten additional enzymes in our GUS panel, with the physiologically relevant glucuronide metabolite of the NSAID diclofenac, DCF-G (Table 3 and Fig. S11).
(§2) Diclofenac acyl β-D-glucuronide (DCF-G) was purchased as a solid (LC Scientific Inc., Concord ON) and resuspended in DMSO to a concentration of 25 mM. […] The pH of each reaction was chosen based on the optimal pH determined for each GUS with pNPG. Reactions were quenched at 0, 1, 2, 3, 4, and 5 min with 50 µL of 25% trichloroacetic acid (TCA). For PmGUS, reactions were quenched at 0, 10, 20, 30, 40, and 50 min. After centrifugation at 13,000xg for 10 min, the resultant supernatant was subjected to UPLC analysis. The concentration of DCF-G remaining at each time point was quantified on a Waters Acquity H-class liquid chromatograph system. Samples were separated on a Waters Acquity UPLC BEH C18 column (2.1 × 50 mm, 1.7 µm particle size) at 40 °C. The flow rate was 0.6 mL/min, and the injection volume was 3 µL. LC conditions were set at 100% water with 0.1% formic acid (A) ramped linearly over 9.8 mins to 95% acetonitrile with 0.1% formic acid (B) and held until 10.2 mins. At 10.21 mins the gradient was switched back to 100% A and allowed to re-equilibrate until 11.25 mins. DCF-G was monitored at 280 nm. The concentration of DCF-G was determined from a standard curve (0–500 µM DCF-G in assay buffer). Control reactions were performed in which enzyme was substituted with buffer. Background hydrolysis was not observed at each pH tested. Reactions were performed in triplicate for each enzyme.

E. coli GUS (EcGUS) = E. coli GUS (EcGUS) (Escherichia coli, UniProt P05804); settings: DCF-G as substrate, 400 µM; pH 7.4; 37 °C
E. coli GUS (EcGUS), sequence (P05804 whole entry): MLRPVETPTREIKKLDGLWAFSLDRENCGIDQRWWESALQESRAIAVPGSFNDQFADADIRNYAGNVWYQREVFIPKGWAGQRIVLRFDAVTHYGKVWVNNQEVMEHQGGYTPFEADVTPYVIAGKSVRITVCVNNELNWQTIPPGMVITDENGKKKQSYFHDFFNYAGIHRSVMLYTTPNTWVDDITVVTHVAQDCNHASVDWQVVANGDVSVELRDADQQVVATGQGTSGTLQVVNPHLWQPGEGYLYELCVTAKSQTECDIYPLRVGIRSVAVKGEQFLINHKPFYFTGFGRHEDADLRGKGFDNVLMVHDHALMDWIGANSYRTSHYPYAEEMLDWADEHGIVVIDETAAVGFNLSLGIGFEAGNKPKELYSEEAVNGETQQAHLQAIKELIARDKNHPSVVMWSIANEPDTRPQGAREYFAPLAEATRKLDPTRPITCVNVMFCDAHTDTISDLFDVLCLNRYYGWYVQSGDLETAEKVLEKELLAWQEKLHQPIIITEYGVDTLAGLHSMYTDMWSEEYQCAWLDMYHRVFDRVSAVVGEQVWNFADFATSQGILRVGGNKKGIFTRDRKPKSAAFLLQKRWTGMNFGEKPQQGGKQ
Text: as §1, §2

[2] = target: Bacteroides fragilis GUS (BfGUS) (Bacteroides fragilis, UniProt Q5LIC7); settings: DCF-G as substrate, 400 µM; pH 5.0; 37 °C
Bacteroides fragilis GUS (BfGUS), sequence (Q5LIC7 whole entry): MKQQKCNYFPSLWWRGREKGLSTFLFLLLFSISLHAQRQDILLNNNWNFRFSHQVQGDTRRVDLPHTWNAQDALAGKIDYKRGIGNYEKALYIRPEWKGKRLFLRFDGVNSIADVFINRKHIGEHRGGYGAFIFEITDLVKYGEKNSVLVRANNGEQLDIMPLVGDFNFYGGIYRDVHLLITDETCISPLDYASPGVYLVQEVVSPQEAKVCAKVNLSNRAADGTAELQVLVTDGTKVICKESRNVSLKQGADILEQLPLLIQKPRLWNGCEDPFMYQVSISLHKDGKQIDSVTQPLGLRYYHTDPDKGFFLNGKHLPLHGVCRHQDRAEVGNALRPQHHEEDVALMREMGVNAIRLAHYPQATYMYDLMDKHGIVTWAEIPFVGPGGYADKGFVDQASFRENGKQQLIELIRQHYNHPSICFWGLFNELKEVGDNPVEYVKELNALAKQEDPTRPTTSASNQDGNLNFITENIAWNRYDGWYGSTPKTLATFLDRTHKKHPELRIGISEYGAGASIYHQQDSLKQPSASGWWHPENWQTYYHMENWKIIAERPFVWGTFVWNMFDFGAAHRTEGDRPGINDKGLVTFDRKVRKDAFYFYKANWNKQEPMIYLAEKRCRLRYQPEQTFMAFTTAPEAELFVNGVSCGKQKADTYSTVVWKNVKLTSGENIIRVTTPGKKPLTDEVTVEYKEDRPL
Text: as §1, §2

[3] = target: T2, Eubacterium eligens GUS (EeGUS) (Lachnospira eligens, UniProt C4Z6Z2); settings: DCF-G as substrate, 400 µM; pH 6.5; 37 °C
T2 sequence (C4Z6Z2 1-611): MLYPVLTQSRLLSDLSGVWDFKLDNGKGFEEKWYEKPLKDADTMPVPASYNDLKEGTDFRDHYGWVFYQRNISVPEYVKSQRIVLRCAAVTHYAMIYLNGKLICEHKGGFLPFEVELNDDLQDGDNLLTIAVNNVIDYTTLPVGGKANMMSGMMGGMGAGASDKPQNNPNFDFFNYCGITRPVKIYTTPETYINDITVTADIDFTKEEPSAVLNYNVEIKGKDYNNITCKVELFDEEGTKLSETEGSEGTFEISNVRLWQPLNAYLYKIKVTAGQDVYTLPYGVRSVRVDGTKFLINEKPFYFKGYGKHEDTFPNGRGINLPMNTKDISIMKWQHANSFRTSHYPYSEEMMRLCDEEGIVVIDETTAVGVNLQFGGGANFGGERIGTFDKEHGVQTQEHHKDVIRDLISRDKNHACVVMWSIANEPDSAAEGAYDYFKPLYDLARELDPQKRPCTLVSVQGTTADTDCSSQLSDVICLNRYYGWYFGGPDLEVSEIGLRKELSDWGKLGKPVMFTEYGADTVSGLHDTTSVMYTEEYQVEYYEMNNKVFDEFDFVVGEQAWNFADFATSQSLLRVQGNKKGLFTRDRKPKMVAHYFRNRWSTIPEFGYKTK

[4] = target: T3, Faecalibacterium prausnitzii GUS (FpGUS) (Faecalibacterium duncaniae, UniProt C7H4D2); settings: DCF-G as substrate, 400 µM; pH 6.0; 37 °C
T3 sequence (C7H4D2 1-608): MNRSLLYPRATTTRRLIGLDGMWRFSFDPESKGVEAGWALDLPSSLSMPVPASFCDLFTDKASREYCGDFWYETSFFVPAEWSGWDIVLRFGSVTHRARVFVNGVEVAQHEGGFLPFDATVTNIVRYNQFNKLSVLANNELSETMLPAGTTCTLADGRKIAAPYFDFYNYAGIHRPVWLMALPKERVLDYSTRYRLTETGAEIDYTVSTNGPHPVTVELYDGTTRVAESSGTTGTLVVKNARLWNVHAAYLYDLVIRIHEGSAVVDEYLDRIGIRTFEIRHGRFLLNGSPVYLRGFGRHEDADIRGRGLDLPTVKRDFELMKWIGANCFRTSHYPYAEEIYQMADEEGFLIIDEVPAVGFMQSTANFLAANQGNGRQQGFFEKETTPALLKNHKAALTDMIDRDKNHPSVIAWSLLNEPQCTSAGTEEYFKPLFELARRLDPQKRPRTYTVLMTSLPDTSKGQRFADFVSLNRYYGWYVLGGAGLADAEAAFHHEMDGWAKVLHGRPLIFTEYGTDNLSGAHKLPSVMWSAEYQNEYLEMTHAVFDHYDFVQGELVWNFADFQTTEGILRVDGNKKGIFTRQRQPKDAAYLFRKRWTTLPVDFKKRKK

O=C(Cc1ccccc1Nc1c(Cl)cccc1Cl)O[C@@H]1O[C@H](C(=O)O)[C@@H](O)[C@H](O)[C@H]1O [DCF-G, Diclofenac acyl β-D-glucuronide]
Apparent kcat [1]: 97 s⁻¹ and 97 ± 5 s⁻¹ | Apparent kcat (E. coli GUS (EcGUS)): 30.7 s⁻¹ and 30.7 ± 0.7 s⁻¹ | Apparent kcat [2]: 15.1 s⁻¹ and 15.1 ± 0.5 s⁻¹ | Apparent kcat [3]: 138 s⁻¹ and 138 ± 2 s⁻¹ | Apparent kcat [4]: 32 ± 3 s⁻¹
